{"source": "patent US20120088279A1", "about": "“ALGAL LIPID PRODUCTION” (Phycal, Inc., priority 2009, published 2012)", "tested_on": "Nannochloropsis sp.", "test": "Pulsed chlorate stress with non-destructive lipid extraction of algae culture", "type": "cell-based", "conditions": "chlorate stress 18 hours under nutrient-replete conditions, repeated cycles, compared to identical system with the cycle carried out only once", "source_text": "Nannochloropsis sp., a unicellular alga capable of producing large amounts of triacylglycerides, can be grown in f/2 medium with 1/3rd strength Instant Ocean under indoor lighting in 800 L raceway systems either kept moving with a submerged pump or paddlewheel. The algae are first grown under normal, nutrient replete conditions. Upon achieving a set concentration in culture sufficient for economical extraction (e.g., 1.0 g/L), an amount of chlorate sufficient to block nitrogen uptake by the Nannochloropsis is added. The Nannochloropsis culture is then allowed to grow under these conditions of nutrient assimilation inhibition for 18 hours. Twenty five percent of the algae culture is then removed and subjected to a non-destructive extraction process, while ammonia is added to the remaining in an amount sufficient to renew normal nitrogen uptake.\nThe removed portion of the culture is then mixed with dodecane or undecane or a mixture of the two for 15 minutes, during which sonication is applied for 2 seconds at 40 kHz. The mixture is partitioned with the upper solvent level removed by decanting, and the lower aqueous layer is then returned to the original algae culture, in which non-stressed growth has resumed as a result of the addition of ammonia. […]", "data": [{"smiles": "[O-][Cl+2]([O-])O", "note": "[chlorate]", "values": [{"measurement": "levels of lipid obtained during subsequent cycles", "result": "higher levels of lipid"}]}]}
